Tests used:
rhELA2 = molecular target: T1, rhELA2 (Homo sapiens, UniProt P08246); test: Neutrophil elastase (rhELA2) fluorescence inhibition assay; assay type: biochemical; details: rhELA2 activated with DPPI; 30 min preincubation, 1 hr with substrate, fluorescence 360 nm/450 nm
T1 sequence (P08246 30-267): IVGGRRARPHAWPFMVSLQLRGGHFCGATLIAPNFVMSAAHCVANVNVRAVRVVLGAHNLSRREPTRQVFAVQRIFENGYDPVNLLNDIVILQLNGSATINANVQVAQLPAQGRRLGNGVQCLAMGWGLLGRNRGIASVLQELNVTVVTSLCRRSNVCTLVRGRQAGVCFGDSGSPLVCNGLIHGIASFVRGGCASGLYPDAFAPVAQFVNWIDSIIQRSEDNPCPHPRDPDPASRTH
Description: Compound preparation: All compounds were dissolved in DMSO at a concentration of 10 mM, and stored at −20° C.
A 1× assay buffer was prepared. […] 1 μL of the serially diluted compound and 65.67 μL of the assay buffer were added into a plate, to obtain 3× working solutions of the positive compound and the test compounds (the final concentration in DMSO was 1.5%). The plate was sealed with a sealing film and shaken on an oscillator for 15 min.
A 1× activation buffer was prepared. rhELA2 was diluted in the activation buffer containing DPPI and incubated at 37° C. for 2 hrs to activate rhELA2. 5 μl of the 3× diluted working solutions of the compound was added to a 384-well plate. rhELA2 was diluted with the 1× assay buffer, to obtain a 3× working solution of rhELA2. 5 μl of the 3× working solution of rhELA2 was added to each well of the 384-well plate. The plate was sealed and incubated for 30 min at room temperature in the dark.
A 3× substrate solution was prepared in the 1× assay buffer. 5 μl of the 3× working solution of the substrate was added into the 384-well plate. The 384-well plate was centrifuged at 1000 rpm for 1 min, and incubated for 1 hr at room temperature in the dark. The fluorescence value FLU at 360 nm/450 nm was read on a plate reader.
The inhibition rate % was calculated. Inhibition rate=(1−(FLU of the compound−FLU of the positive well)/(FLU of the reference well−FLU of the positive well)). FLU of the reference well is that of a well with only the enzyme and no the inhibitor, and FLU of the positive well is that of a well with the enzyme and 3000 nm Sivelestat-2. Then the IC50 value was calculated by the formula Y=Bottom+(Top−Bottom)/(1+10^((LogIC50−X)*HillSlope)) using Graphpad 8.0 software.

[1] = tested on: mouse model of LPS-induced acute lung injury; test: Animal Test 1: mouse model of LPS-induced acute lung injury; assay type: in vivo, ICR mice; details: for Content of inflammatory factor IL-1β (Mean ± SD) / Content of inflammatory factor TNF-α (Mean ± SD): left lung homogenate supernatant, 24 h after LPS, i.v. 25 mg/kg at 0.5 h, 4 h and 12 h, total 75 mg/kg
Description: Test animals: ICR mice, SPF grade, male, weight at the time of administration: 25-28 g.
Animal grouping: 4 groups, each group having 10 animals.
Establishment of mouse model of LPS-induced acute lung injury: The mice were anesthetized by intramuscular injection of Zoletil®50 (0.05 mL/mouse). Then the mice were fixed in a supine position, the cervical trachea was isolated, and lipopolysaccharide (LPS) (1 mg/mL, 35 μL/mouse) was sprayed by a high-pressure atomizing nozzle. The neck skin was sutured, and disinfected with iodophor.
The dosage at each administration was 25 mg/kg, and the total daily dosage was 75 mg/kg.
24 h after LPS was sprayed into the trachea of mice, the mice were sacrificed, and the trachea was isolated and intubated. The left lung lobe was ligated. The lung lavage was carried out with 0.5 mL normal saline (containing 1% serum and 2 U/mL heparin), and then the process was repeated two times. The lavage fluids of the 3 times were mixed and stood on ice for later use. The ligated left lung lobe was removed from the animal Nos. 1-8 in the blank control group, the model group, the test group and the positive control group respectively, weighed, added with 0.9% NaCl at a ratio of 1:6, homogenized at 4° C. and centrifuged at 10000 rpm for 10 min. The supernatant was collected and the contents of inflammatory factors IL-1B and TNF-α were determined.

[2] = tested on: rat model of hydrochloric acid-induced acute lung injury; test: Animal Test 2: rat model of hydrochloric acid-induced acute lung injury; assay type: in vivo, rats
Description: Animal grouping: 4 groups, each group having 8 animals.
Establishment of rat model of hydrochloric acid-induced acute lung injury: 0.1 N HCL was sprayed into the trachea of rats at a dosage of 0.1 mL/rat.
Both groups were administered twice by tail vein injection, immediately after the model establishment and again 2.5 hrs after the model establishment.
The rats were sacrificed 5 h after the model establishment. Alveolar lavage was performed. The inflammatory cells, protein exudation, pulmonary hemorrhage and NE enzyme activity in the lavage fluid were measured.

[3] = alveolar lavage fluid 5 h after model establishment, tail vein injection twice, total 120 mg/kg
[4] = alveolar lavage fluid 5 h after model establishment, tail vein injection twice, total 30 mg/kg

Compound	IC50 (rhELA2) [nM]	also measured
COC[C@@H](NC(=O)c1ccccc1NS(=O)(=O)c1ccc(OC(=O)C(C)(C)C)cc1)C(=O)O [Compound 20]	2.47	inhibitory effects on inflammatory factors IL-1B and TNF-α, compared with Sivelestat sodium ([1]; both 75 mg/kg total, i.v.): significantly better than those of Sivelestat sodium; Content of inflammatory factor IL-1β (Mean ± SD) [1]: 784 ± 159 pg/mL; Content of inflammatory factor TNF-α (Mean ± SD) [1]: 442 ± 118 pg/mL; improvement of pulmonary hemorrhage, reduction of protein exudation and white blood cell count in alveolar lavage fluid, compared with Sivelestat sodium ([2]; Compound 20 120 mg/kg vs Sivelestat sodium 30 mg/kg): more obviously compared with Sivelestat sodium; Protein content in alveolar lavage fluid [2, 3]: 0.30 ± 0.05 mg/mL; Pulmonary hemorrhage (IOD, absorbance at 412 nm) [2, 3]: 0.20 ± 0.03; White blood cell count (WBC, 1 × 10^6 cell/mL) [2, 3]: 0.28 ± 0.10 ** 1 × 10^6 cell/mL
CC(C)(C)C(=O)Oc1ccc(S(=O)(=O)Nc2ccccc2C(=O)NCC(=O)O)cc1 [Sivelestat sodium, reference compound]		Content of inflammatory factor IL-1β (Mean ± SD) [1]: 1048 ± 384 ^ pg/mL; Content of inflammatory factor TNF-α (Mean ± SD) [1]: 552 ± 77 pg/mL; Protein content in alveolar lavage fluid (mg/mL) [2, 4]: 0.35 ± 0.07 **^ mg/mL; Pulmonary hemorrhage (IOD, absorbance at 412 nm) [2, 4]: 0.25 ± 0.10; White blood cell count (WBC, 1 × 10^6 cell/mL) [2, 4]: 0.42 ± 0.11 1 × 10^6 cell/mL
CC(C)(C)C(=O)Oc1ccc(S(=O)(=O)Nc2ccccc2C(=O)NCCS(=O)(=O)O)cc1 [Compound 13, 2-(2-((4-(pivaloyloxy)phenyl)sulfonamido)benzamido) ethan-1-sulfonic acid]	4.22	
COC[C@H](NC(=O)c1ccccc1NS(=O)(=O)c1ccc(OC(=O)C(C)(C)C)cc1)C(=O)O [Compound 26]	8.49	
Cn1cc(-c2ccc(NS(=O)(=O)c3ccc(OC(=O)C(C)(C)C)cc3)c(C(=O)NCC(=O)O)c2)cn1 [Compound 2]	30.5	
C[C@@H](NC(=O)c1ccccc1NS(=O)(=O)c1ccc(OC(=O)C(C)(C)C)c(F)c1)C(=O)O [Compound 23]	3.69	
C[C@@H](NC(=O)c1cc(F)ccc1NS(=O)(=O)c1ccc(OC(=O)C(C)(C)C)cc1)C(=O)O [Compound 21]	2.26	
[2H]C([2H])([2H])OC[C@@H](NC(=O)c1ccccc1NS(=O)(=O)c1ccc(OC(=O)C(C)(C)C)cc1)C(=O)O [Compound 25, O-(methyl-d3)-N-(2-((4-(pivaloyloxy)phenyl)sulfonamido)benzoyl)-D-serine]	2.54	
CC(C)(C)C(=O)Oc1ccc(S(=O)(=O)Nc2ccccc2C(=O)NCP(=O)(O)O)cc1 [Compound 12, ((2-((4-(pivaloyloxy)phenyl)sulfonamido)benzamido)methyl)phosphonic acid]	5.69	
CC(C)(C)C(=O)Oc1ccc(S(=O)(=O)Nc2ccc(-n3ccnc3)cc2C(=O)NCC(=O)O)cc1 [Compound 3]	23.6	
Cn1nccc1-c1ccc(NS(=O)(=O)c2ccc(OC(=O)C(C)(C)C)cc2)c(C(=O)NCC(=O)O)c1 [Compound 1, (5-(1-methyl-1H-pyrazol-5-yl)-2-((4-(pivaloyloxy)phenyl)sulfonamido)benzoyl)glycine]	20.4	
C[C@@H](NC(=O)c1cc(C#N)ccc1NS(=O)(=O)c1ccc(OC(=O)C(C)(C)C)cc1)C(=O)O [Compound 22]	2.2	
COC[C@@H](NC(=O)c1cc(C#N)ccc1NS(=O)(=O)c1ccc(OC(=O)C(C)(C)C)cc1)C(=O)O [Compound 24]	1.5	
COc1ccc(NS(=O)(=O)c2ccc(OC(=O)C(C)(C)C)cc2)c(C(=O)NCC(=O)O)c1 [Compound 17]	15.3	
CSCC(NC(=O)c1ccccc1NS(=O)(=O)c1ccc(OC(=O)C(C)(C)C)cc1)C(=O)O (centres unmarked) [Compound 27]	130	
CC(C)(C)C(=O)Oc1ccc(S(=O)(=O)Nc2ccc(-c3cnoc3)cc2C(=O)NCC(=O)O)cc1 [Compound 11]	27	
CC(C)(C)C(=O)Oc1ccc(S(=O)(=O)N[C@@H]2CCC(F)(F)C[C@@H]2C(=O)NCC(=O)O)cc1 [Compound 6]	32.8	
CC(C)(C)C(=O)Oc1ccc(S(=O)(=O)Nc2ccccc2C(=O)N[C@H](CF)C(=O)O)cc1 [Compound 19]	2.25	

From US20260200845A1, “NEUTROPHIL ELASTASE INHIBITOR AND USE THEREOF” (Shanghai Yidi Biotechnology Co., Ltd, priority 2023, published 2026)
